Measured values published in patent EP4603481A1, “PREPARATION AND USE OF CATIONIC LIPID MATERIAL” (Nanjing Geneleap Biotechnology Co., Ltd., priority 2022, dated 2024).
“Also recorded” adds a separate entry of the source.

Legend:
Balb/c mice [1] = assay: Animal transfection of lipid nanoparticles, in vivo imaging after 24 h; details: leg muscle injection, 0.1 mg/kg FFluc mRNA; for Multiple of total photon intensity in the supine position relative to MC3: Table 5, Balb/c mice; for Multiple of local photon intensity in the supine position relative to MC3: Table 5, injection site
Protocol: (§1) Balb/c mice (available from Vital River Laboratory Animal Technology Co., Ltd., male, 6-8 weeks old, 20-24 g) were randomized into groups, 5 mice per group. The mice were injected the prepared lipid nanoparticles into the leg muscle at a dose of 0.1 mg/kg (calculated as to FFluc mRNA (SEQ ID NO.1)) and observed by in vivo imaging after 24 h. The injection sites on the bellies and legs of Balb/c mice were depilated, and after anesthesia, the animals were injected D-luciferin potassium salt intraperitoneally, and were observed and photographed in an IVIS living body imager (PerkinElmer, Series III), wherein the observation time of living body images was within 15 min after the injection of substrate. Table 5. Results of animal transfection efficiency of lipid nanoparticles made from different cationic lipids

Balb/c mice [2] = assay: Animal transfection of lipid nanoparticles, in vivo imaging after 12 h; details: for Multiple of local photon intensity in the supine position relative to MC3 / Multiple of photon intensity of the viscera in the supine position relative to MC3: Table 8, 0.1 mg/kg FFluc mRNA, 12 h; for Multiple of local photon intensity in the supine position relative to MC3: injection site; for Multiple of photon intensity of the viscera in the supine position relative to MC3: viscera (liver); for toxic and side effect on the liver: inferred from expression in the liver 12 h after administration
Protocol: as §1, with “after 12” for “after 24”, “Table 7.” for “Table 5.”

Compound	Multiple of total photon intensity in the supine position relative to MC3 (Balb/c mice [1])	Multiple of local photon intensity in the supine position relative to MC3 (Balb/c mice [1])	Multiple of local photon intensity in the supine position relative to MC3 (Balb/c mice [2])	Multiple of local photon intensity in the supine position relative to MC3 (Balb/c mice [2]; 0.1 mg/kg)	Multiple of photon intensity of the viscera in the supine position relative to MC3 (Balb/c mice [2])	toxic and side effect on the liver (Balb/c mice [2])
CCCCCCCCC(CCCCCC)C(=O)OCC(CN(C)CCN1CCCC1)OC(=O)C(CCCCCC)CCCCCCCC (stereo not drawn) [Compound 1]	1.668	significantly higher	not weaker than that of MC3 LNP	–	–	–
CCCCCCCCC(CCCCCC)C(=O)OCC(CN(C)CCN1CCN(C)CC1)OC(=O)C(CCCCCC)CCCCCCCC (stereo not drawn) [Compound 2]	equivalent	significantly higher	not weaker than that of MC3 LNP	–	–	–
CCCCCCCCC(CCCCCCCC)OC(=O)CCCCC(=O)OCC(CN(C)CCN1CCN(C)CC1)OC(=O)CCCCC(=O)OC(CCCCCCCC)CCCCCCCC (stereo not drawn) [Compound 17]	–	–	–	equivalent; also recorded: not weaker than that of MC3 LNP	almost have no expression in the liver	completely avoid liver toxicity; also recorded: completely avoid the toxic and side effect on the liver
CCCCCCCCC(CCCCCCCC)OC(=O)CCCCC(=O)OCC(CN(C)CCN1CCCC1)OC(=O)CCCCC(=O)OC(CCCCCCCC)CCCCCCCC (stereo not drawn) [Compound 18]	–	–	–	equivalent; also recorded: not weaker than that of MC3 LNP	almost have no expression in the liver	completely avoid liver toxicity; also recorded: completely avoid the toxic and side effect on the liver
